Reference: patent US7973075B2, “Kainate receptor-selective epimeric analogs of dysiherbaine” (priority 2007, dated 2011)

Tests used:
GluR6 [1] = biological target: T1, GluR6 (Rattus norvegicus, UniProt P42260); experiment: Patch-clamp recordings from transfected HEK 293 cells, Example 1; type: cell-based; settings: Example 1, FIG. 5
T1 construct: expressed in transfected cells; HEK 293 (patch clamp)
Protocol: Non-specific binding was defined in the presence of 1 mM glutamate. The effect of these analogs on electrophysiology was assessed as follows. HEK 293 cells were transfected with receptor cDNAs in combination with eGFP cDNA. Patch-clamp recordings from transfected cells were made 24-72 hours later using a fast application system described previously (Swanson et al., NEURON 1997; 19:913-26). (See FIG. 3.)
The effect of these analogs on electrophysiology also was assessed as described above. […] The results further indicate that the C8 and C9 substituents are necessary for binding to all AMPA and KAR subunits except for GluR5 subunits. The C9 polar group must be present and in the correct spatial orientation for high-affinity GluR5 subunit binding. Inter-domain contacts mediated by residue 721S are critical determinants of binding affinity. The epimer analog 9-deoxy-neoDH mimics the binding affinity of the di-deoxy analog MSVIII-19, but acts as an agonist rather than an antagonist.

GluR6a = biological target: T2, GluR6a (Rattus norvegicus, UniProt P42260); settings: Sanders et al., 2005; cited from earlier work
T2 construct: expressed in transfected cells; host or cells: HEK-293-T/17

KA2 [2] = biological target: T3, KA2 (Rattus norvegicus, UniProt Q63273); settings: Tables 1-2; comparison values of neoDH and MSVIII-19 (Sanders et al., 2005); cited from earlier work
T3 construct: expressed in transfected cells; host or cells: HEK-293-T/17
T3 sequence (Q63273 15-979): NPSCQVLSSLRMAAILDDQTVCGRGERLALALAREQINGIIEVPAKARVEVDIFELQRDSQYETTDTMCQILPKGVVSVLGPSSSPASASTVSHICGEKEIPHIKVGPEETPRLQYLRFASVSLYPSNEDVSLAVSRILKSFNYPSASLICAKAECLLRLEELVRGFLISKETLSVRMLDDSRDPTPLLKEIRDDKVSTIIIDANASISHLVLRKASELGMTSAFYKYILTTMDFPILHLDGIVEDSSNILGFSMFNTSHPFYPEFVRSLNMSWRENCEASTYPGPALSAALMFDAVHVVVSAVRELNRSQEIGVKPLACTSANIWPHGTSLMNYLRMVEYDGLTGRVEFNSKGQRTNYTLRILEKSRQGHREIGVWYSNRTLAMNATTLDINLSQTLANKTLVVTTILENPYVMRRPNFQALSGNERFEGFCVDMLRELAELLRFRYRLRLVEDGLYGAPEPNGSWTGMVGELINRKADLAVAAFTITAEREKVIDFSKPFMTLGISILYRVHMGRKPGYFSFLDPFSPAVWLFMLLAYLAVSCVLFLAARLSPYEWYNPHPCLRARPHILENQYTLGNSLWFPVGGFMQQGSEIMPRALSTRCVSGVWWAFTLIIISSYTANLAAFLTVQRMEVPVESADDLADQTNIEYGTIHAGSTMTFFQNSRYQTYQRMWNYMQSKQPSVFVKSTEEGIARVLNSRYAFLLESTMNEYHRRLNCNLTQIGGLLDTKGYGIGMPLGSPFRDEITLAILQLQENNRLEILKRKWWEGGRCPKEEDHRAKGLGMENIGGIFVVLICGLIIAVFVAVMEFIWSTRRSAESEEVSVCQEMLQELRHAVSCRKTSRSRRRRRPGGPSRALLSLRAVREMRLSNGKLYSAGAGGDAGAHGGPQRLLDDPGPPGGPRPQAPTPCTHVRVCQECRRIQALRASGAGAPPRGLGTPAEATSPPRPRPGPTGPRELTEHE

KA2 [3] = biological target: T3, KA2; settings: Sanders et al., 2005; cited from earlier work
GluR5-2a = biological target: T4, GluR5-2a (Rattus norvegicus, UniProt P22756, DEL402-416); settings: Sanders et al., 2005; read-out: IC50 for inhibition of glutamate-evoked currents, GluR5-2a receptors; cited from earlier work
T4 construct: expressed in transfected cells; host or cells: HEK-293-T/17

GluR1(i) = biological target: T5, GluR1(i) (Rattus norvegicus, UniProt P19490); settings: Sanders et al., 2005; cited from earlier work
T5 construct: expressed in transfected cells; host or cells: HEK-293-T/17

GluR2(i) = biological target: T6, GluR2(i) (Rattus norvegicus, UniProt P19491); settings: Sanders et al., 2005; cited from earlier work
T6 construct: expressed in transfected cells; host or cells: HEK-293-T/17

GluR2 = biological target: T7, GluR2 (Rattus norvegicus, UniProt P19491); settings: Table 1; comparison value of MSVIII-19 (Sanders et al., 2005); read-out: GluR2 binding affinity (displacement of [3H]AMPA); cited from earlier work
T7 construct: expressed in transfected cells; host or cells: COS-7 or HEK-T/17

GluR5 = biological target: T8, GluR5 (Rattus norvegicus, UniProt P22756); settings: Tables 1-2; comparison values of neoDH and MSVIII-19 (Sanders et al., 2005); read-out: GluR5 binding affinity (displacement of [3H]kainate); cited from earlier work
T8 construct: expressed in transfected cells; HEK 293 (patch clamp)

GluR6 [4] = biological target: T1, GluR6; settings: Table 1; comparison value of MSVIII-19 (Sanders et al., 2005); read-out: GluR6 binding affinity (displacement of [3H]kainate); cited from earlier work
GluR1 = biological target: T9, GluR1 (Rattus norvegicus, UniProt P19490); settings: Table 1; comparison value of MSVIII-19 (Sanders et al., 2005); read-out: GluR1 binding affinity (displacement of [3H]AMPA); cited from earlier work
T9 construct: expressed in transfected cells; host or cells: COS-7 or HEK-T/17
T9 sequence (P19490 19-907 isoform P19490-2 limits assumed): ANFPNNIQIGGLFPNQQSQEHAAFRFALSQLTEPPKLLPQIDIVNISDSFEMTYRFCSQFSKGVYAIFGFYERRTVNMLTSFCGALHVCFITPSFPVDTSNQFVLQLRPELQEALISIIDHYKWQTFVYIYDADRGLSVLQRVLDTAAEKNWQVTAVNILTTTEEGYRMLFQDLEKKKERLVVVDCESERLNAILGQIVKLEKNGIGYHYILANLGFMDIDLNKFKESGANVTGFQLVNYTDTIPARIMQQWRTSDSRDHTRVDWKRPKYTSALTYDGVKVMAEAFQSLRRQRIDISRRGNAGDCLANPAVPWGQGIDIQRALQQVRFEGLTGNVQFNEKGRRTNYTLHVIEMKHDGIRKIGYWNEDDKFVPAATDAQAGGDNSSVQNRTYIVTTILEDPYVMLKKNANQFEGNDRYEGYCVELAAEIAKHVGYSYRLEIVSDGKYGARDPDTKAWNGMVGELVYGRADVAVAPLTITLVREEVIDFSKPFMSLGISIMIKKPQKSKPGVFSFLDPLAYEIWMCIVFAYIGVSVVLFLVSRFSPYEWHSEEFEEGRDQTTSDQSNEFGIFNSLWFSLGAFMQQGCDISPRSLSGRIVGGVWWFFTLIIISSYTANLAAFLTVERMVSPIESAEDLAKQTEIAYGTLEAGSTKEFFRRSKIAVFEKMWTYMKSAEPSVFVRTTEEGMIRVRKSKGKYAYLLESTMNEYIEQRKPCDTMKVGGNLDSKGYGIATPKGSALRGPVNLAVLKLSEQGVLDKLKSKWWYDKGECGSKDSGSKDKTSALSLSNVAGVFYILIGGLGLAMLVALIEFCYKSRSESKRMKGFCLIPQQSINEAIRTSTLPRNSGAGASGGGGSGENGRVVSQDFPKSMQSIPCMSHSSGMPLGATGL

T1 sequence (P42260 32-908): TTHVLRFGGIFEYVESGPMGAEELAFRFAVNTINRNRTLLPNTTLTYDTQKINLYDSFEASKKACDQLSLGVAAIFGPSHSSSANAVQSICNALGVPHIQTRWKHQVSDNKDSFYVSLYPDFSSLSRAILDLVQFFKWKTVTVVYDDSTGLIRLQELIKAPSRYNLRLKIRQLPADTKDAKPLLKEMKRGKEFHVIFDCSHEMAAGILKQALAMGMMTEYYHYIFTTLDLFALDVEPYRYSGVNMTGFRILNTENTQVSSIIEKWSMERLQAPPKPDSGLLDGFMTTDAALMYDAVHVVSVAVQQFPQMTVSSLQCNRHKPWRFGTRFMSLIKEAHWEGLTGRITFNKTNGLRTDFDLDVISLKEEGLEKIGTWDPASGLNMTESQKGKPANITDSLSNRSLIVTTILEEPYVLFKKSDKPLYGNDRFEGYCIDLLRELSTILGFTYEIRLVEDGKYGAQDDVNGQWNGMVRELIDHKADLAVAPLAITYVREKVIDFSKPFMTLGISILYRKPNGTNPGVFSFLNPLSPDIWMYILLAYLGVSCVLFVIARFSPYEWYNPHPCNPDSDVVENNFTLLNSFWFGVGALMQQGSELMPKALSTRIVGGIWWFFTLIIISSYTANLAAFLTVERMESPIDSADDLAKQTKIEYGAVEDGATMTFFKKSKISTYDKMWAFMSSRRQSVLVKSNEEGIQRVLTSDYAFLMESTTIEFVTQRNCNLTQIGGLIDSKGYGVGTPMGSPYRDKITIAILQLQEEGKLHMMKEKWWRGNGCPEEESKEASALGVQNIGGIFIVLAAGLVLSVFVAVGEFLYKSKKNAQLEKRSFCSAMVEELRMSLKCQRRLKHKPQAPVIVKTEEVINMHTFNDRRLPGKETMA
T8 sequence (P22756 with tags, fused parts or gaps isoform P22756-2): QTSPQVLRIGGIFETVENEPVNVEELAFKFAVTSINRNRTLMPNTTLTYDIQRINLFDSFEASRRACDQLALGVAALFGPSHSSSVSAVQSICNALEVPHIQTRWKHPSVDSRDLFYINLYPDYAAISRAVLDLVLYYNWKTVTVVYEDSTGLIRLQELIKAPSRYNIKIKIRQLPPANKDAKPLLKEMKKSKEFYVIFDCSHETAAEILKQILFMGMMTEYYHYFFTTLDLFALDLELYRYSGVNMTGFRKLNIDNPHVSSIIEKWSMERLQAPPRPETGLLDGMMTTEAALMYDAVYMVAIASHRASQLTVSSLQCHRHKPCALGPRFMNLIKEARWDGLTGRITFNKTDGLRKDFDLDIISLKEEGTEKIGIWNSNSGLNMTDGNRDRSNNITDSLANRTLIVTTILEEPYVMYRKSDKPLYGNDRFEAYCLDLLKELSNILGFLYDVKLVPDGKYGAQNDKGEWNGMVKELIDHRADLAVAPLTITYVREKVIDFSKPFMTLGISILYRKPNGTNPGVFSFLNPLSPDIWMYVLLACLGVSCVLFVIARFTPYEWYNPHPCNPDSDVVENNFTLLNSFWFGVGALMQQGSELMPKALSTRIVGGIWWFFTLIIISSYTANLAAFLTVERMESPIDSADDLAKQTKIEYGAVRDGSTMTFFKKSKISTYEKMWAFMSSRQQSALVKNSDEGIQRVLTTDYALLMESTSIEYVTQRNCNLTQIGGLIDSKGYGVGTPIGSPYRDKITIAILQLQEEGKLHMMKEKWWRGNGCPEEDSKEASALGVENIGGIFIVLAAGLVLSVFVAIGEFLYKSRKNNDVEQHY
T4 sequence (P22756 with tags, fused parts or gaps isoform P22756-2 limits assumed, stated change not applied): as the sequence (P22756 with tags, fused parts or gaps isoform P22756-2) above
T5 sequence (P19490 19-907 isoform P19490-2 limits assumed): as the sequence (P19490 19-907 isoform P19490-2 limits assumed) above
T6 sequence (P19491 22-883 isoform P19491-2 limits assumed): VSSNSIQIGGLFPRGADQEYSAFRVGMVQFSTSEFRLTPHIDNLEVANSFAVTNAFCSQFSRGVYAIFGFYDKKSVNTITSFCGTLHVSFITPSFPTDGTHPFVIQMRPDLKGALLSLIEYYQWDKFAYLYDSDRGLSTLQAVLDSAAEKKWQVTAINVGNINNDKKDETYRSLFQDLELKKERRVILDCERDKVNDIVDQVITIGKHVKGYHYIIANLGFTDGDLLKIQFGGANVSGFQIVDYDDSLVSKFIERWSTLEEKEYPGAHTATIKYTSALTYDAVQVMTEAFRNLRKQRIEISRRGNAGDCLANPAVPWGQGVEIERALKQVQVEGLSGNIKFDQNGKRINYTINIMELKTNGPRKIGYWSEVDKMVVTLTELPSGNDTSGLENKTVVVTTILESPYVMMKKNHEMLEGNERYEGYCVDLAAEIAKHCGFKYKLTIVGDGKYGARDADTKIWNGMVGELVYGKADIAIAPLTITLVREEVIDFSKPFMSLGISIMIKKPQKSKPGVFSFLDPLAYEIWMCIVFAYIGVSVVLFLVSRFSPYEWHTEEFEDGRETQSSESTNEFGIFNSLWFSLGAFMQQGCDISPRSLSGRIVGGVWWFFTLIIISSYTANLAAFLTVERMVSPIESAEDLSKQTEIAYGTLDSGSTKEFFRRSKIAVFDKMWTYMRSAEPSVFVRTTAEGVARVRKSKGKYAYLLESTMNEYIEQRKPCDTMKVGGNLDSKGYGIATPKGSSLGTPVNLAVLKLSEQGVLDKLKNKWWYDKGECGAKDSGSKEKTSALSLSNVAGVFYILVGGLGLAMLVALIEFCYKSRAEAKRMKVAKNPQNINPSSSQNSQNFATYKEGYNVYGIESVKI
T7 sequence (P19491 22-883 isoform P19491-2 limits assumed): as above
T2 sequence (P42260 32-908): as the sequence (P42260 32-908) above

SMILES | agonist or antagonist at GluR6 (electrophysiology) (GluR6 [1]) | Ki (GluR6a) [µM] | KA2 binding affinity (displacement of [3H]kainate) (KA2 [2]) [µM] | Ki KA2 (KA2 [3]) [µM] | IC50 (GluR5-2a) [µM] | Ki (GluR1(i)) [µM] | Ki (GluR2(i)) [µM] | Ki (GluR2) [µM] | Ki (GluR5) [µM] | Ki (GluR6 [4]) [µM] | Ki (GluR1) [µM]
N[C@@H](C[C@@]1(C(=O)O)CC2OCC(O)C(O)C2O1)C(=O)O (single isomer, unassigned) [4-epi-neoDH, 4-epi-neodysiherbaine] | GluR5/GluR6 antagonist |  |  |  |  |  |  |  |  |  | 
N[C@@H](C[C@]1(C(=O)O)C[C@H]2OCCC[C@H]2O1)C(=O)O [MSVIII-19, 8,9-dideoxy-neoDH] |  | > 100 | >100 | >100 | 0.023 | > 100 | > 100 | > 100 | 0.128 | > 100 | > 100
